US4749702A, “Antidepressive substituted N-[(4-piperidinyl)alkyl] bicyclic condensed oxazol- and thiazolamines” (Janssen Pharmaceutica N. V., priority 1987, dated 1988)

System: Loss in righting reflex induced by xylazine
Test: Loss of righting reflex test (xylazine antagonism)
Format: in vivo, Female Wistar strain rats
Settings: female Wistar rats 220-270 g; test compound 60 min before observation; xylazine 20 mg/kg i.p. 30 min later; route of test compound not given
Procedure: Loss of righting reflex test Female Wistar strain rats weighing 220-270 g were used throughout the test. Sixty minutes before observations were made, the rats were treated with a test compound or with a saline solution. Thirty minutes later, all animals received an intraperitoneal injection of 20 mg/kg body weight of xylazine. […] The degree of which the righting reflex was compromised, was scored 0-3 depending on the animal's response to it being put gently on its back on a flat surface. Score 3: complete loss of righting reflexes; score 2: some righting movements occur, but these fail to result in a 180° turn of the body; score 1: righting movements do result in a 180° turn of the body, but the process takes noticeably more time than it does in normal animals; score 0: righting is effected with a speed similar to that of normal rats.

`Fc1cccc2sc(NCC3CCN(CC4COc5ccccc5O4)CC3)nc12` (stereo not drawn) [Compound 20, N-[[1-[(2,3-dihydro-1,4-benzodioxin-2-yl)methyl]-4-piperidinyl]methyl]-4-fluoro-2-benzothiazolamine] was tested, and the “Loss in righting reflex induced by xylazine ED50-values (dose producing loss of righting reflex scores <3 in 50% of the tested animals)” value was 0.066 mg/kg.
`Cc1ccc2nc(NCC3CCN(CC4COc5ccccc5O4)CC3)sc2c1` (stereo not drawn) [Compound 21, N-[[1-[(2,3-dihydro-1,4-benzodioxin-2-yl)methyl]-4-piperidinyl]methyl]-6-methyl-2-benzothiazolamine] was tested, and the “Loss in righting reflex induced by xylazine ED50-values (dose producing loss of righting reflex scores <3 in 50% of the tested animals)” value was 0.14 mg/kg.
For `COc1cc2nc(NCC3CCN(CC4COc5ccccc5O4)CC3)sc2c(OC)c1OC` (stereo not drawn) [Compound 26, N-[[1-[(2,3-dihydro-1,4-benzodioxin-2-yl)methyl]-4-piperidinyl]methyl]-5,6,7-trimethoxy-2-benzothiazolamine (E)-2-butenedioate(2:3)], the “Loss in righting reflex induced by xylazine ED50-values (dose producing loss of righting reflex scores <3 in 50% of the tested animals)” value was 0.08 mg/kg.
With `COc1ccc2nc(NCC3CCN(CC4COc5ccccc5O4)CC3)sc2c1` (stereo not drawn) [Compound 68, N-[[1-[(2,3-dihydro-1,4-benzodioxin-2-yl)methyl]-4-piperidinyl]methyl]-6-methoxy-2-benzothiazolamine] the “Loss in righting reflex induced by xylazine ED50-values (dose producing loss of righting reflex scores <3 in 50% of the tested animals)” value was 0.16 mg/kg.
With `Cl.Cl.c1ccc2c(c1)OCC(CN1CCC(CNc3nc4ccccc4o3)CC1)O2` (stereo not drawn) [Compound 42, N-[[1-[(2,3-dihydro-1,4-benzodioxin-2-yl)methyl]-4-piperidinyl]methyl]-2-benzoxazolamine dihydrochloride] the “Loss in righting reflex induced by xylazine ED50-values (dose producing loss of righting reflex scores <3 in 50% of the tested animals)” value was 0.31 mg/kg.
For `c1ccc2c(c1)OCC(CN1CCC(CNc3nc4cc5c(cc4s3)OCO5)CC1)O2` (stereo not drawn) [Compound 28, N-[[1-[(2,3-dihydro-1,4-benzodioxin-2-yl)methyl]-4-piperidinyl]methyl]-1,3-dioxolo[4,5-f]benzothiazol-6-amine], the “Loss in righting reflex induced by xylazine ED50-values (dose producing loss of righting reflex scores <3 in 50% of the tested animals)” value was 0.31 mg/kg.
In the case of `Fc1ccc2nc(NCC3CCN(CC4COc5ccccc5O4)CC3)sc2c1` (stereo not drawn) [Compound 19, N-[[1-[(2,3-dihydro-1,4-benzodioxin-2-yl)methyl]-4-piperidinyl]methyl]-6-fluoro-2-benzothiazolamine], the “Loss in righting reflex induced by xylazine ED50-values (dose producing loss of righting reflex scores <3 in 50% of the tested animals)” value is reported as 0.31 mg/kg.
For `COc1cc2nc(NCC3CCN(CC4CCc5ccccc5O4)CC3)sc2cc1OC` (stereo not drawn) [Compound 35], the “Loss in righting reflex induced by xylazine ED50-values (dose producing loss of righting reflex scores <3 in 50% of the tested animals)” value was 0.31 mg/kg.
`c1ccc2c(c1)OC[C@H](CN1CCC(CNc3nc4cccnc4s3)CC1)O2` [Compound 13, (-)-(S)-N-[[1[(2,3-dihydro-1,4-benzodioxin-2-yl)methyl]-4-piperidinyl]methyl]thiazolo[5,4-b]pyridin-2-amine] was tested, and the “Loss in righting reflex induced by xylazine ED50-values (dose producing loss of righting reflex scores <3 in 50% of the tested animals)” value was 0.08 mg/kg.
With `c1ccc2c(c1)OCC(CN1CCC(CNc3nc4cnccc4s3)CC1)O2` (stereo not drawn) [Compound 58, N-[[1-[(2,3-dihydro-1,4-benzodioxin-2-yl)methyl]-4-piperidinyl]methyl]thiazolo[4,5-c]pyridin-2-amine] the “Loss in righting reflex induced by xylazine ED50-values (dose producing loss of righting reflex scores <3 in 50% of the tested animals)” value was 0.080 mg/kg.
`COc1cc2nc(NCC3CCN(CC4COc5ccccc5O4)CC3)sc2cc1OC` (stereo not drawn) [Compound 27, N-[[1-[(2,3-dihydro-1,4-benzodioxin-2-yl)methyl]-4-piperidinyl]methyl]-5,6-dimethoxy-2-benzothiazolamine] was tested, and the “Loss in righting reflex induced by xylazine ED50-values (dose producing loss of righting reflex scores <3 in 50% of the tested animals)” value was 0.16 mg/kg.
For `c1ccc2c(c1)OCC(CN1CCC(CNc3nc4cccnc4s3)CC1)O2` (stereo not drawn) [Compound 8, N-[[1-[(2,3-dihydro-1,4-benzodioxin-2-yl)methyl]-4-piperidinyl]methyl]thiazolo[5,4-b]pyridin-2-amine], the “Loss in righting reflex induced by xylazine ED50-values (dose producing loss of righting reflex scores <3 in 50% of the tested animals)” value was 0.08 mg/kg.
For `COc1cc(OC)c2sc(NCC3CCN(C[C@H]4COc5ccccc5O4)CC3)nc2c1` [Compound 34], the “Loss in righting reflex induced by xylazine ED50-values (dose producing loss of righting reflex scores <3 in 50% of the tested animals)” value was 0.31 mg/kg.
`Cl.Cl.Oc1ccc2nc(NCC3CCN(CC4COc5ccccc5O4)CC3)sc2c1` (stereo not drawn) [Compound 57, 2-[[[1-[(2,3-dihydro-1,4-benzodioxin-2-yl)methyl]-4-piperidinyl]methyl]amino]-6-benzothiazolol dihydrochloride] was tested, and the “Loss in righting reflex induced by xylazine ED50-values (dose producing loss of righting reflex scores <3 in 50% of the tested animals)” value was 0.31 mg/kg.
For `c1ccc2c(c1)OCC(CN1CCC(CCNc3nc4ccccc4s3)CC1)O2` (stereo not drawn) [Compound 30, N-[2-[1[(2,3-dihydro-1,4-benzodioxin-2-yl)methyl]-4-piperidinyl]ethyl]-2-benzothiazolamine], the “Loss in righting reflex induced by xylazine ED50-values (dose producing loss of righting reflex scores <3 in 50% of the tested animals)” value was 0.31 mg/kg.
